# Measured values reported in patent publication US12201640B2, “19-nor C3,3-disubstituted C21-n-pyrazolyl steroids and methods of use thereof” (Sage Therapeutics, Inc., priority 2013, dated 2025).
# Read-outs that look alike come from different tables or passages of the source.
# Columns and labels:
# Type in all cases: cell-based
# GABAA receptor α1β2γ2 = biological target: T1, GABAA receptor α1β2γ2 (Homo sapiens, UniProt P14867+P47870); assay: Patch clamp electrophysiology, Qpatch in Ltk cells; details: 10 μM test article, GABA EC20 2 μM, read-out: GABA (α1β2γ2) Qpatch in Ltk, % efficacy at 10 μM
# T1 construct: expressed in transfected cells
# How it was run: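 Whole-cell voltage clamp at −80 mV, room temperature: α1β2γ2 stably expressed in Ltk cells (QPatch), α4β3δ transiently in CHO cells (manual patch). Compound at 0.01–10 μM pre-applied 30 s, then 2 μM GABA (EC20) for 2 s. Potentiation = peak current with compound / GABA alone × 100.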
# GABAA-R = biological target: T2, GABAA-R (Homo sapiens, UniProt P14867+P47870); assay: Electrophysiological evaluation at GABAA-R (Table 2)
# T2 sequence (P14867 1-456): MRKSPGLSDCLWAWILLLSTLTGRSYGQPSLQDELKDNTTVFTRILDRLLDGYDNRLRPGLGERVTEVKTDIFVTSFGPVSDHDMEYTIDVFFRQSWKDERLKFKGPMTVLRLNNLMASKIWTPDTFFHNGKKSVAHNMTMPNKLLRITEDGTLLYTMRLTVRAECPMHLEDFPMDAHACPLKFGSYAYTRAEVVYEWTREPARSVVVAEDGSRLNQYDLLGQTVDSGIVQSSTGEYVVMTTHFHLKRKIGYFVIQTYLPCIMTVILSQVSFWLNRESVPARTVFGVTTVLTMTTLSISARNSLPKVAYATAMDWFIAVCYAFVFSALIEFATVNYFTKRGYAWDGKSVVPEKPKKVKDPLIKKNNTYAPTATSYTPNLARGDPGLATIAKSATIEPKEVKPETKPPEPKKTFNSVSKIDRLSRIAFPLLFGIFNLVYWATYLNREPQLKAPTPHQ
# T2 sequence (P47870 1-512): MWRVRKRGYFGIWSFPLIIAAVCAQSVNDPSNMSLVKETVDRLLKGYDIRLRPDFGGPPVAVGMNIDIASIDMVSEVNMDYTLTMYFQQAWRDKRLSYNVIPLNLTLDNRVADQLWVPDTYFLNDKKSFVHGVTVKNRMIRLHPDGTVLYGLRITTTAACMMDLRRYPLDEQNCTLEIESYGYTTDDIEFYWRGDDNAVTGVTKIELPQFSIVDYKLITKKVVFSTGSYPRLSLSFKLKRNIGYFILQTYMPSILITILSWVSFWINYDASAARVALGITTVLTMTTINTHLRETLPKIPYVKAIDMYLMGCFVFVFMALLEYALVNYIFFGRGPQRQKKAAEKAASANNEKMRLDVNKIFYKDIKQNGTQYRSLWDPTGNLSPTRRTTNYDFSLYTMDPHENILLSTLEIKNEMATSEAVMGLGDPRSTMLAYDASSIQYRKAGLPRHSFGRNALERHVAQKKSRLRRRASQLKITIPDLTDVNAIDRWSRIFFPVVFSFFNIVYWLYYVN
# Method: (§1) Patch Clamp Electrophysiology of Recombinant α1β2γ2 and α4β3δ GABAA Receptors
# (§2) Cellular electrophysiology is used to measure the pharmacological properties of our GABAA receptor modulators in heterologous cell systems. Each compound is tested for its ability to affect GABA mediated currents at a submaximal agonist dose (GABA EC20=2 μM). LTK cells are stably transfected with the α1β2γ2 subunits of the GABA receptor and CHO cells are transiently transfected with the α4β3δ subunits via the Lipofecatamine method. Cells were passaged at a confluence of about 50-80% and then seeded onto 35 mm sterile culture dishes containing 2 ml culture complete medium without antibiotics or antimycotics. Confluent clusters of cells are electrically coupled (Pritchett et al., Science, 1988, 242, 1306-1308.). Because responses in distant cells are not adequately voltage clamped and because of uncertainties about the extent of coupling (Verdoorn et al., Neuron 1990, 4, 919-928.), cells were cultivated at a density that enables the recording of single cells (without visible connections to other cells).
# (§3) Whole cell currents were measured with HEKA EPC-10 amplifiers using PatchMaster software or by using the high throughput QPatch platform (Sophion). Bath solution for all experiments contained (in mM): NaCl 137 mM, KCl 4 mM, CaCl2 1.8 mM, MgCl2 1 mM, HEPES 10 mM, D-Glucose 10 mM, pH (NaOH) 7.4. In some cases 0.005% cremophor was also added. Intracellular (pipette) solution contained: KCl 130 mM, MgCl2 1 mM, Mg-ATP 5 mM, HEPES 10 mM, EGTA 5 mM, pH 7.2. During experiments, cells and solutions were maintained at room temperature (19° C.-30° C.). For manual patch clamp recordings, cell culture dishes were placed on the dish holder of the microscope and continuously perfused (1 ml/min) with bath solution. After formation of a Gigaohm seal between the patch electrodes and the cell (pipette resistance range: 2.5 MΩ-6.0 MΩ; seal resistance range: >1 GΩ) the cell membrane across the pipette tip was ruptured to assure electrical access to the cell interior (whole-cell patch-configuration). For experiments using the QPatch system, cells were transferred as suspension to the QPatch system in the bath solution and automated whole cell recordings were performed.
# (§4) Cells were voltage clamped at a holding potential of −80 mV. For the analysis of test articles, GABA receptors were stimulated by 2 μM GABA after sequential pre-incubation of increasing concentrations of the test article. Pre-incubation duration was 30 s and the duration of the GABA stimulus was 2 s. Test articles were dissolved in DMSO to form stock solutions (10 mM). Test articles were diluted to 0.01, 0.1, 1, and 10 μM in bath solution. All concentrations of test articles were tested on each cell. The relative percentage potentiation was defined as the peak amplitude in response to GABA EC20 in the presence of the test article divided by the peak amplitude in response to GABA EC20 alone, multiplied by 100.
# GABAA receptor α4β3δ = biological target: T3, GABAA receptor α4β3δ (Homo sapiens, UniProt P28472+P48169); assay: Patch clamp electrophysiology, manual patch in CHO cells; details: 10 μM test article, GABA EC20 2 μM, read-out: GABA (α4β3δ) Manual patch in CHO, % efficacy at 10 μM
# T3 construct: expressed in transfected cells; host or cells: CHO cells (transient, lipofection)
# Method: as §1, §2, §3, §4
# [1] = GABAA-R electrophysiology, read-out: EC50
# T1 sequence (P18507 40-475 partner, one chain of several): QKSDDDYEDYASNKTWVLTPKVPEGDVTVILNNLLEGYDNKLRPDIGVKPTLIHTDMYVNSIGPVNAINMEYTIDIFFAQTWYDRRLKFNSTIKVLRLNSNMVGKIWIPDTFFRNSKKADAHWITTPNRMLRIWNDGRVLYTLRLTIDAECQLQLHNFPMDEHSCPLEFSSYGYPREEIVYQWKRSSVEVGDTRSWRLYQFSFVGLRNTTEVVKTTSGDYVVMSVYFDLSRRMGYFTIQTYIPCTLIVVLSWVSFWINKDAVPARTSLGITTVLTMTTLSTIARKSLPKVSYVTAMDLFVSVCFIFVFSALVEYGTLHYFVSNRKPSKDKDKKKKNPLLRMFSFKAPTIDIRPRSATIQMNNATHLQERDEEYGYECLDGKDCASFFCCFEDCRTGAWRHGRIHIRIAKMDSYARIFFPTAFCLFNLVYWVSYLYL
# T3 sequence (P48169 36-554): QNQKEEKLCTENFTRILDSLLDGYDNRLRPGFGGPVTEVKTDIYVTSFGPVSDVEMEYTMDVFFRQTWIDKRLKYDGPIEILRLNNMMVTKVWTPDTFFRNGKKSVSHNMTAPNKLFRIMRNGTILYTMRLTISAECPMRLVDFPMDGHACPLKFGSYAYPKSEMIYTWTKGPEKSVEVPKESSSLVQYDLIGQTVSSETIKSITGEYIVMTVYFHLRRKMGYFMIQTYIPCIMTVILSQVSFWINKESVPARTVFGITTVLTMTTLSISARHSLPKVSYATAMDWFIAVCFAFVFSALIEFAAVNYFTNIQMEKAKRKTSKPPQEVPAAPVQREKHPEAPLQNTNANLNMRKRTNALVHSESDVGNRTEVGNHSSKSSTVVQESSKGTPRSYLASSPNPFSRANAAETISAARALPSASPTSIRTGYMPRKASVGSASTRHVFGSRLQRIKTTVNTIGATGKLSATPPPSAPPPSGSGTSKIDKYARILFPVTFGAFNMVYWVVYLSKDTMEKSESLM
# T3 sequence (P28472 26-473): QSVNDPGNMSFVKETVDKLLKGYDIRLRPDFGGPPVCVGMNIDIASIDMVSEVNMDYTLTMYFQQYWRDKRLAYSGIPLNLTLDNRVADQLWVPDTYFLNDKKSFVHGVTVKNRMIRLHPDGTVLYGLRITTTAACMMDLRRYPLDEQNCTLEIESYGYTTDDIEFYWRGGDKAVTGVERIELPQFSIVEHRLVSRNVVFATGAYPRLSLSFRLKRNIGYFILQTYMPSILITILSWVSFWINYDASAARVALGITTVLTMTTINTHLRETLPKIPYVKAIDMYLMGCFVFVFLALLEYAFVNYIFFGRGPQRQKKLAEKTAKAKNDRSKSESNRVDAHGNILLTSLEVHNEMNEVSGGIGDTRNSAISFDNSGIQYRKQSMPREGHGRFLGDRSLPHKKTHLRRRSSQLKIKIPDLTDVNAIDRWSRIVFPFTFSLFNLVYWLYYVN
# T3 sequence (O14764 25-452 partner): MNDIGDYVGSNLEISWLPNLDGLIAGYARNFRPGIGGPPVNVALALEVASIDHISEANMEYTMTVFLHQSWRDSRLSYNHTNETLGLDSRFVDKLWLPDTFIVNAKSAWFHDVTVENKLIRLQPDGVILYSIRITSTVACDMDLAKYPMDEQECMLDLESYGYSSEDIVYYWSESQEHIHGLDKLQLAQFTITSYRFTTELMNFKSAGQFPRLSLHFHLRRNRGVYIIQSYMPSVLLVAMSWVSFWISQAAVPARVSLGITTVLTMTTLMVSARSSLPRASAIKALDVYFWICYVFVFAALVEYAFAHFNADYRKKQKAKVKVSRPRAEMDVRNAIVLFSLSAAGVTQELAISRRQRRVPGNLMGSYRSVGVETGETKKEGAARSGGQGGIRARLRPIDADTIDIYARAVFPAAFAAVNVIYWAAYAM
Structure (SMILES),Emax at 10 µM (GABAA receptor α1β2γ2) [%],EC50 (GABAA-R) [nM],Emax (GABAA-R; GABAA-R electrophysiology) [%],Emax at 10 µM (GABAA receptor α4β3δ) [%],EC50 (GABAA-R; [1]) [nM]
C[C@@]1(O)CC[C@H]2[C@H](CC[C@@H]3[C@@H]2CC[C@]2(C)[C@@H](C(=O)Cn4cc(C#N)cn4)CC[C@@H]32)C1 [SA-4],100 to 500,100 to 500,0 to 500,100 to 500,
Cc1cnn(CC(=O)[C@H]2CC[C@H]3[C@@H]4CC[C@@H]5C[C@](C)(O)CC[C@@H]5[C@H]4CC[C@]23C)c1 [SA-6],100 to 500,,0 to 500,> 500,100 to 500
C[C@@]1(O)CC[C@H]2[C@H](CC[C@@H]3[C@@H]2CC[C@]2(C)[C@@H](C(=O)Cn4cccn4)CC[C@@H]32)C1 [SA-13],100 to 500,,0 to 500,> 500,500 to 1000
